Test results: paper PMC7349874, “High Content Screening Using New U2OS Reporter Cell Models Identifies Harmol Hydrochloride as a Selective and Competitive Antagonist of the Androgen Receptor” (Cells, 2020)
Where a name gives a salt, the structure may show the parent alone. Read-outs that look alike come from different tables or passages of the source.

How the values were obtained:
[1] = molecular target: T1, full-length wild-type AR (hAR) (Homo sapiens, UniProt P10275); test: Transactivation (luciferase) assay in U2OS-hAR-ARE-Luc reporter cells, screen and validation; type: cell-based; details: for Results of 1st screen on AR: 0.3, 1, 3, 10 µM, 16 h, hit = AR transcriptional activity changed by more than 50% dose-dependently, <20% effect in control cells; for Nature of AR inhibition (competitive or non-competitive): 1 nM versus 100 nM R1881
T1 sequence (P10275 1-920): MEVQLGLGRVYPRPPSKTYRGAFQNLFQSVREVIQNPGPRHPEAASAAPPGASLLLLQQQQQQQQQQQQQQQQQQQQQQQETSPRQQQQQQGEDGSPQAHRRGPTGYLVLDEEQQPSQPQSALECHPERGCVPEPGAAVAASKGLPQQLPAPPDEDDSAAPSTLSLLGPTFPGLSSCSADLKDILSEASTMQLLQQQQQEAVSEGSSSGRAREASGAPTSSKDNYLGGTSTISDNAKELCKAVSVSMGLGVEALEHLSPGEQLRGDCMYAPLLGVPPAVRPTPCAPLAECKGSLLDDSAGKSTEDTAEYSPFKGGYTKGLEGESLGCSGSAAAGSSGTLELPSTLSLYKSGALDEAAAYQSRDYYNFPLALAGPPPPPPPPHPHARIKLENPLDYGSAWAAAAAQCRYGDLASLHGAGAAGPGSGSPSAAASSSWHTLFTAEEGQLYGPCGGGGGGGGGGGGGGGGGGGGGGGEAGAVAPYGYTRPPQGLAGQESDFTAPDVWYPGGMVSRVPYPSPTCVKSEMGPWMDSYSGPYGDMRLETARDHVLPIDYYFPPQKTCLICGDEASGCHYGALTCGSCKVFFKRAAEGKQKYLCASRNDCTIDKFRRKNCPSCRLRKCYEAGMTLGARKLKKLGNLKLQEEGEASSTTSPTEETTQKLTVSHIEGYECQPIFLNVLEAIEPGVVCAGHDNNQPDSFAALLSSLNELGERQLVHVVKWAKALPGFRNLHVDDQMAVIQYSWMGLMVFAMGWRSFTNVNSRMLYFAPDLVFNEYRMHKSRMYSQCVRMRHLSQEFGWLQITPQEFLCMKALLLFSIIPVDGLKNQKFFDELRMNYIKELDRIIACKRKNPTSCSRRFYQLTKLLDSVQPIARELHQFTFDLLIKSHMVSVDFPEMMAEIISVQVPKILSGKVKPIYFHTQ
Description: U2OS-hAR-ARE(Rad9)-Luc and U2OS-hARv7-ARE(PB)-Luc were then used to screen the Prestwick phytochemical library®, containing 320 natural compounds, at four concentrations (0.3, 1, 3, 10 µM) in duplicate.

[2] = tested on: U2OS-ARE-Luc control cells; test: Luciferase activity in U2OS-ARE-Luc control cells; details: validation, up to 3 µM, 16 h

Compound	Results of 1st screen on AR [1]	also measured
COc1ccc(-c2cc(=O)c3c(O)cc(O)cc3o2)cc1 [Acacetin]	No effect	–
C[C@@H]1O[C@@H](O[C@H]2C(=O)c3c(O)cc(O)cc3O[C@@H]2c2ccc(O)c(O)c2)[C@H](O)[C@H](O)[C@H]1O [Astilbin]	No effect	–
COc1ccc2cc3n(c(=O)c2c1OC)CCc1cc2c(cc1-3)OCO2 [Berlambine]	No effect	–
C=C(C)[C@@H]1CC[C@]2(C(=O)O)CC[C@]3(C)[C@H](CC[C@@H]4[C@@]5(C)CC[C@H](O)C(C)(C)[C@@H]5CC[C@]43C)[C@@H]12 [Betulinic acid]	No effect	–
NCCC(O)C(=O)NC1CC(N)C(OC2OC(CN)C(O)[C@H](O)[C@@H]2N)[C@H](OC2O[C@H](CO)[C@@H](O)[C@@H]2O)[C@@H]1O.O=S(=O)(O)O.O=S(=O)(O)O (stereo partly shown) [Butirosin disulfate salt]	No effect	–
NC(N)=NOCC[C@H](N)C(=O)O.O.O=S(=O)(O)O [Canavanine sulfate monohydrate (L,+)]	No effect	–
COc1cc(O)cc(O)c1C(=O)/C=C/c1ccccc1 [Cardamonin]	No effect	–
COc1c2c(cc3oc(CO)cc(=O)c13)O[C@H](C(C)(C)O)C2 [Cimifugin]	No effect	–
C[C@H]1[C@H]2CC[C@H]3[C@@H]4CC=C5C[C@@H](N(C)C)CC[C@]5(C)[C@H]4CC[C@]23CN1C [Conessine]	No effect	–
O=c1c(-c2ccc(O)cc2)coc2cc(O[C@@H]3O[C@H](CO)[C@@H](O)[C@H](O)[C@H]3O)cc(O)c12 [Genistin]	No effect	–
CN(C)Cc1c[nH]c2ccccc12 [Gramine]	No effect	–
COc1ccc2c3c([nH]c2c1)C(C)=NCC3 [Harmaline hydrochloride dihydrate]	No effect	Results of 1st screen on AR ([1]; listed as harmaline): inactive
CC1=NCCc2c1[nH]c1cc(O)ccc21 [Harmalol hydrochloride dihydrate]	No effect	Results of 1st screen on AR ([1]; listed as harmalol): inactive
Cc1nccc2c1[nH]c1ccccc12 [Harmane hydrochloride]	Inhibition	Results of confirmatory screen (validation of AR inhibition) [1]: Not confirmed; Results of 1st screen on AR ([1]; listed as harmane): active inhibitors of AR transcriptional activity
COc1ccc2c(c1)[nH]c1c(C)nccc12 [Harmine hydrochloride]	Inhibition	Effect on luciferase activity in control cells [2]: no effect; Results of confirmatory screen (validation of AR inhibition) [1]: Confirmed; Nature of AR inhibition (competitive or non-competitive) [1]: non-competitive manner; Results of 1st screen on AR ([1]; listed as harmine): active inhibitors of AR transcriptional activity; Results of confirmatory screen (validation of AR inhibition) ([1]; listed as harmine): could impair the transcriptional activity of AR
COc1ccc([C@@H]2CC(=O)c3c(O)cc(O[C@@H]4O[C@H](CO[C@@H]5O[C@@H](C)[C@H](O)[C@@H](O)[C@H]5O)[C@@H](O)[C@H](O)[C@H]4O)cc3O2)cc1O [Hesperidin]	No effect	–
Br.CC[C@H]1CN2CCC1C[C@H]2[C@H](O)c1ccnc2ccc(OC)cc12.O (stereo partly shown) [Hydroquinine hydrobromide hydrate]	No effect	–
O=C1Nc2ccccc2/C1=C1/Nc2ccccc2C1=O [Indirubin]	No effect	–
CC1=C2C(=O)[C@H]3[C@@H](CC=C4C[C@@H](O)CC[C@@]43C)[C@@H]2CC[C@]12O[C@@H]1C[C@H](C)CN[C@H]1[C@H]2C [Jervine]	No effect	–
O=C1CCC[C@@H]2[C@H]3CCCN4CCC[C@@H](CN12)[C@@H]34 [Matrine]	No effect	–

Compound	Results of 1st screen on AR [1]	also measured
C=C(C)[C@@H]1[C@H]2OC(=O)[C@@H]1[C@]1(O)C[C@H]3O[C@]34C(=O)O[C@H]2[C@]14C [Picrotoxinin]	No effect	–
CC[C@@H](C)C(=O)O[C@H]1[C@H](O)[C@H]2[C@@H](CN3C[C@@H](C)CC[C@H]3[C@@]2(C)O)[C@@H]2C[C@]34O[C@]5(O)[C@@H](OC(=O)[C@@](C)(O)CC)CC[C@@]3(C)[C@@H]5[C@@H](OC(C)=O)[C@@H](OC(C)=O)[C@H]4[C@@]21O [Protoveratrine A]	No effect	–
CN1[C@@H]2CCC[C@H]1CC(=O)C2.Cl [Pseudopelletierine hydrochloride]	No effect	–
O=c1c2ccccc2nc2n1CCc1c-2[nH]c2ccccc12 [Rutaecarpine]	No effect	–
C[C@@H]1O[C@@H](OC[C@H]2O[C@@H](Oc3c(-c4ccc(O)c(O)c4)oc4cc(O)cc(O)c4c3=O)[C@H](O)[C@@H](O)[C@@H]2O)[C@H](O)[C@H](O)[C@H]1O [Rutin]	No effect	–
OCc1ccccc1O[C@@H]1O[C@H](CO)[C@@H](O)[C@H](O)[C@H]1O [Salicin]	No effect	–
C[C@@H]1NCCc2cc(O)c(O)cc21 [Salsolinol hydrobromide]	No effect	–
COc1ccc2c(OC)c3ccoc3nc2c1OC [Skimmianine]	No effect	–
C[C@@H]1CC[C@@]2(NC1)O[C@H]1C[C@H]3[C@@H]4CC=C5C[C@@H](O)CC[C@]5(C)[C@H]4CC[C@]3(C)[C@H]1[C@@H]2C [Solasodine]	No effect	–
C[N+]1(C)CCC[C@H]1C(=O)[O-].Cl [Stachydrine hydrochloride]	No effect	–
O=c1cc(-c2ccc(O)cc2)oc2c([C@@H]3O[C@H](CO)[C@@H](O)[C@H](O)[C@H]3O)c(O)cc(O)c12 [Vitexin]	No effect	–
C[C@]12CC[C@H](O)C[C@H]1CC[C@@H]1[C@@H]2CC[C@]2(C)[C@@H](C3=CC(=O)OC3)CC[C@]12O [digitoxigenin]	active inhibitors of AR transcriptional activity	–
Cc1c2ccncc2c(C)c2c1[nH]c1ccccc12 [ellipticine]	active inhibitors of AR transcriptional activity	Effect on luciferase activity in control cells [2]: no effect; Nature of AR inhibition (competitive or non-competitive) [1]: non-competitive manner; Results of confirmatory screen (validation of AR inhibition) ([1]; six concentrations, absence or presence of 1 nM or 100 nM R1881): could impair the transcriptional activity of AR
C=CCc1ccc(O)c(-c2ccc(O)c(CC=C)c2)c1 [honokiol]	active inhibitors of AR transcriptional activity	–
COc1ccc2[nH]c3c(c2c1)CCN=C3C [methoxy-6-harmalan]	inactive	–
CN1CCc2cc3c(c4c2C1Cc1ccccc1-4)OCO3 (stereo not shown) [remerine]	active inhibitors of AR transcriptional activity	–
Evodiamine	No effect	–
Foliosidine	No effect	–
Retrorsine	No effect	–
strophantin	active inhibitors of AR transcriptional activity	–
